This note sets out measurements from PMC4842970, “Bioactivity Focus of α-Cyano-4-hydroxycinnamic acid (CHCA) Leads to Effective Multifunctional Aldose Reductase Inhibitors” (Scientific Reports, 2016).

In one data set the test system is sorbitol content. Briefly: Sorbitol content in glucose-treated embryos. It is filed as in vivo. The conditions noted are these: glucose-treated chick embryos, EDD 5, dose 1 μM. As to the method: (§1) As expected, treatment of 5f decreased ALR2 activity in a dose-dependent manner. […] However, EDA, which is a clinical radical scavenger, was shown no effect on the inhibition of ALR2.
(§2) Embryos on EDD 5 were homogenized with chicken saline and centrifuged (4 °C, 10000 rpm, 10 min). The supernatant was used for measuring AR activity in the sample. A chicken AR ELISA kit (Jianglai Biotechnology, China) were used for detection. The concentration of AR in the samples was then determined by comparing the OD of the samples to the standard curve. The sorbitol contents of the chick embryo were determined by a Sorbitol Colorimetric Assay Kit (BioVision, USA). In the assay, sorbitol is oxidized to fructose with the proportional development of intense color with an absorbance maximum at 560 nm.

Another data set concerns the target T1, human ALR2 (Homo sapiens, UniProt P15121).
T1 construct: purchased WAKO Pure Chemical Industries, Ltd. (Japan); host or cells: baculovirus-insect cell expression system
Briefly: ALR2 inhibition (in vitro reduction of D,L-glyceraldehyde). It is filed as biochemical. As to the method: Human ALR2 was purchased from WAKO Pure Chemical Industries, Ltd. (Japan), which was purified from the culture medium of baculovirus-insect cell expression system. […] ALR2 inhibition was determined spectrophotometrically according to the procedure described previously.

Data set [1] is described as follows: Stability in DMEM containing 5% FBS (RP-HPLC). It is filed as in vitro ADME. Conditions: 37 °C, 12 h incubation. As to the method: Predicted from its structure, the stability of 5f will be good and the toxicity will be low. […] After 12 h incubation, 86% of 5f remained intact.
The sample was incubated in high-glucose Dulbecco’s modified Eagle’s medium (DMEM) containing 5% fetal calf serum (FBS) for a period of 48 h. Analyses were scheduled at 0.5, 1.0, 4.0, 8.0, 12.0, 24.0, and 48.0 h. Reverse-phase high performance liquid chromatography (RP-HPLC) was performed on a Cosmosil column (C18, […], 4.6 × 250 mm) using an LC-100 fluid unit (Shanghai Wufeng Inc., China) with a tunable LC-100 UV detector. The eluent was various percentages of methanol containing pure water (flow rate: 1.0 ml/min; λ: 254 nm). The experiments were repeated at least 3 times and compared with the control experiment. The results were shown in Supporting Infromation.

Another data set concerns ALR2. Briefly: AR (ALR2) activity in glucose-treated embryos (chicken AR ELISA kit). The conditions noted are these: glucose-treated chick embryos, EDD 5, dose 1 μM. The format is in vivo. As to the method: as §1, §2
For orientation: In an ELISA, binding on a coated surface is turned into a signal by an enzyme label.

Another data set concerns chick embryo. Put plainly: Chick embryo model of hyperglycemia: mortality, NTD rate, body weight. It is filed as in vivo. Conditions: glucose 0.4 mmol/egg. As to the method:
In order to evaluate further the potential of 5f as an agent to treat diseases caused by high glucose inside the system, a chick embryo model of treatment with high glucose was set up.
Fertilized leghorn eggs were purchased from the Avian Farm of the South China Agriculture University (Guangzhou, China). Before the injection of glucose (Sigma–Aldrich, MO, USA), the eggs were incubated in a humidified incubator (Grumbach, Germany) at 37 °C with 60% humidity until the embryos reached the desired stage. […] Glucose was dissolved in 200 μL chicken saline and injected on EDD 1. Mortality, abnormality and body weight measurements were made on EDD 5. Embryos were removed from their eggs and weighed. The percent mortality was measured by counting the number of dead versus all embryos. The rate of NTD of the embryos was assessed by the number of NTD versus survival embryos.

The next data set concerns Pax3. Put plainly: Pax3 protein expression in chick embryos (Western blotting). It is filed as in vivo. The conditions noted are these: glucose-treated chick embryos, EDD 5. As to the method:
Figure 4 5f restored neural tube development and marker expression in chick embryos on EDD 5. Glucose concentration (A) and Pax3 protein expression (B) were determined in chick embryos. The plasma glucose concentration was measured using a glucose oxidase-coupled spectrophotometric assay kit. Proteins were detected using the monoclonal antibody anti-Pax3 diluted 1:1000 (DSHB, USA) and visualized using anti-mouse IgG conjugated with horseradish peroxidase (HRP) and Pierce ECL Western Blotting Substrate (Thermo Fisher Scientific, USA) as the substrate of HRP. […] Values were expressed as mean ± SD in each group (n = 10). *P < 0.05, **P < 0.01 vs. control. ^#P < 0.05, ^##P < 0.01 vs. glucose.
The eyes of EDD 5 chick embryos were separated and lysed in lysis buffer (Beyotime Institute of Biotechnology, China) on ice for 10 min. After centrifugation of the cell suspension at 12000 rpm for 15 min, the protein content of the supernatant was determined with a Pierce BCA protein assay kit (Thermo Fisher Scientific, USA) to ensure equal sample loading. […] Proteins were detected using the monoclonal antibody anti-Pax3 diluted 1:1000 (DSHB, USA) and visualized using anti-mouse IgG conjugated with horseradish peroxidase (HRP) and Pierce ECL Western Blotting Substrate (Thermo Fisher Scientific, USA) as the substrate of HRP.
(In general: A western blot detects proteins with antibodies after separation by electrophoresis.)

Data set [2] can be described thus: ORACFL radical absorbance capacity assay. The source says:
With the CHCA scaffold, we hypothesized that 5a–j should have antioxidant activity. Therefore, a radical absorbance capacity assay (ORACFL)[41] was employed to assess their capacities. This method is based on the inhibition of peroxyl-radical-induced oxidation initiated by thermal decomposition of azo-compounds, in this case 2,2′-azo-bis (2-amidinopropane) dihydrochloride (AAPH). Trolox (6-hydroxy-2,5,7,8-tetramethylchroman-2-carboxylic acid) was used as a standard reference. Data is expressed as micromoles of Trolox equivalents (TE) per […] of sample (μmol TE/ml or U/ml).
Antioxidant capacity was determined according to the procedure described previously.

The IC50 is the point on the concentration scale where inhibition reaches its midpoint. On to `CC(=O)N[C@H](COCc1ccccc1)C(=O)NCCCNC(=O)/C(C#N)=C/c1ccc(O)cc1` [Compound 5f, (R,E) - N - (3-(2-acetamido-3-(benzyloxy)propanamido)propyl)-2-cyano-3-(4-hydroxyphenyl)acrylamide], for which, in the data set on sorbitol content, the “sorbitol content in embryo” value is on record as “decreased significantly”. The IC50 on human ALR2 (human ALR2, D,L-glyceraldehyde as substrate, read-out: IC50 (ALR2 inhibition)) worked out at 72.7 ± 1.6 nM. In addition, the “ALR2 inhibition activity relative to 5d” value on human ALR2 (ratio of inhibition activity vs 5d) is given as “about 5 times”. In data set [1], this molecule registered a remained intact of 86%. Moreover, the “ALR2 activity in embryo” value in the data set on ALR2 is recorded as “close to that of the control”. In addition, the Body weight came to 291.3 ± 10.2 mg with chick embryo (EDD 5, dose 10 nM (CL)); 295.9 ± 13.2 mg with chick embryo (EDD 5, dose 100 nM (CM)); 307.9 ± 10.5 mg with chick embryo (EDD 5, dose 1 μM). Also, the “Death (/n)” value in the data set on chick embryo (EDD 5, dose 10 nM (CL)) stood at 35.0%; with chick embryo (EDD 5, dose 100 nM (CM)) it was 30.0%; with chick embryo (EDD 5, dose 1 μM) it was 25.0%. In addition, the “NTD (/survival)” value is 46.20% in the data set on chick embryo (EDD 5, dose 10 nM (CL)); 35.7% in the data set on chick embryo (EDD 5, dose 100 nM (CM)); 20.0% with chick embryo (EDD 5, dose 1 μM). Also, the Pax3 expression entry with Pax3 is on record as “restored”. The ORAC in data set [2] (3.125 μg/ml) is 68.1 ± 2.3 U/ml; in data set [2] (6.25 μg/ml), 66.5 ± 1.6 U/ml; in data set [2] (12.5 μg/ml) it was 65.7 ± 5.1 U/ml. In data set [2] (concentration of 3.125 μM), the ORAC value is recorded as 65.7 U/ml.
